The values that follow are results of earlier work, collected in patent US8540972B2, “Sunscreen product comprising hydroxyapatite as physical filter” (Kalichem Italia S.R.L., priority 2009, dated 2013).

The data set deals with HeLa cells.

Turning to titanium dioxide [TiO2], the “fate of HeLa cells after UV irradiation in the presence of the substance” value is reported as “die”.
